Results on three compounds are retold here after ChEMBL document CHEMBL1800042, “Generation of 3,8-substituted 1,2,4-triazolopyridines as potent inhibitors of human 11β-hydroxysteroid dehydrogenase type 1 (11β-HSD-1)” (Bioorg Med Chem Lett, 2011).

Broadly, the solubility is the dissolved amount per volume that the medium holds. Lower therefore signals a poorly soluble substance.

Values after ≈ are worked out from the molar mass of the structure shown.

This series in a line: Solubility of the compound at pH 7.4. The note with it: buffer. It is filed as physicochemical.

Turning to `Cc1c(Cl)cccc1Oc1cccn2c(C34CCC(CC3)C4)nnc12`, the solubility was 1 µg/mL (≈ 2.83 µM).

`Cc1c(Cl)cccc1Oc1cccn2c(C34CCC(F)(CC3)CC4)nnc12`: the concentration in solution (solubility) was 1 µg/mL (≈ 2.59 µM).

`Cc1c(Cl)cccc1Oc1cccn2c(C34CCC(O)(CC3)CC4)nnc12` gave a solubility of 11 µg/mL (≈ 28.7 µM).
